Measurements published in EP2711008A1, “N6,N6-dimethyladenosine for use in treating or preventing primary and metastatic breast cancer” (priority 2012, dated 2014).

Experiments:
[1] = system: MCF-7 breast cancer cell line; assay: Tetrazolium dye proliferation (WST-1) assay in MCF-7 cells; assay type: cell-based; settings: 5 days incubation
Description: (§1) Determination of the ability of compound of formula (I) and combinations between compound of formula (I) and certain therapeutic compounds described herein to inhibit the proliferation of target cells was assayed in vitro against breast tumour cells.
(§2) MCF-7 cells were purchased from ATCC. PNT1A cells were purchased from ECACC. The cells were grown in a subconfluent condition to maintain a logarithmic growth phase. The cells were dislodged for passage using trypsin-EDTA.
(§3) The proliferation of the cell lines was evaluated by using the commercial WST-1 proliferation measurement reagent. Cells from exponentially growing cultures were plated on the 96 well plates at the appropriate seeding density in the optimal medium to give logarithmic growth over the course of the assay. […] Following incubation the absorbance at a wavelength of 450 nm was measured from each well using a multilabel counter. The absorbance at wavelength 450 nm correlates linearly to number of viable cells in the well.
(§4) The means and standard deviations for parallel samples were calculated and plotted as a graph.
(§5) The antiproliferative activity of compound of formula (I) was evaluated in vitro using tetrazolium dye proliferation assay in different cell lines: MCF-7 (breast cancer cell line, derived from pleura fluid) and PNT1A (normal prostate cell line, SV40 immortalized).

[2] = system: PNT1A immortalized normal prostate cell line; assay: Tetrazolium dye proliferation (WST-1) assay in PNT1A cells; assay type: cell-based; settings: Homo sapiens, 120 h, compared with 0.1 % DMSO vehicle control group, 5 days incubation, read-out: proliferation inhibitory effect
Description: as §1, §2, §3, §4, §5

prostate cancer cells = assay: Effect on other cancer cells: prostate; assay type: cell-based
pancreatic cancer cells = assay: Effect on other cancer cells: pancreatic; assay type: cell-based
[3] = system: L1210 leukemia cultured cells; settings: prior art (Kato et al 1986; Takamura et al 1989); cited from earlier work
Ehrlich ascites tumour = settings: prior art (Kato et al 1986; Takamura et al 1989); cited from earlier work
[4] = system: malignant trophoblastic cell lines; settings: prior art (Trewyn et al. 1979); cited from earlier work
HL-60 cells = settings: prior art (Meisel et al. 1998; Mlejnek et al. 2005); cited from earlier work

CN(C)c1ncnc2c1ncn2[C@@H]1O[C@H](CO)[C@@H](O)[C@H]1O [Compound I, N6,N6-Dimethyladenosine]
inhibition at 1 µM ([1]; Homo sapiens, MCF7, 120 h, compared with 0.1 % DMSO vehicle control group, 1 microM, read-out: proliferation inhibitory effect): 91.6 ± 2.1% | proliferation inhibitory effect compared with Gemcitabine ([1]; relative to Gemcitabine (= 0)): 62.6±9.4% | inhibition at 1 µM [2]: 17.4 ± 5.3% | effect on prostate cancer cells (prostate cancer cells): no effect was detected | effect on pancreatic cancer cells (pancreatic cancer cells): no effect was detected | antitumour activity in L1210 leukemia cultured cells [3]: inactive | antitumour activity against Ehrlich ascites tumour (Ehrlich ascites tumour): inactive | cytotoxicity to malignant trophoblastic cell lines [4]: cytotoxic | apoptosis induction on HL-60 cells (HL-60 cells): apoptotic inductor
